In patent US20240166664A1, “TRIHETEROCYCLIC COMPOUND, PREPARATION METHOD THEREFOR, AND APPLICATION THEREOF” (SHANGHAI APEIRON THERAPEUTICS COMPANY LIMITED, priority 2021, published 2024):
pIC50: −log10 of the molar value. Where two headings read alike, the source gives them in different places.

Columns and labels:
PARP7 = target: T1, PARP7 (Homo sapiens, UniProt Q7Z3E1); assay: Test of inhibitory activity against PARP7 enzyme (PARP7 FLAG-tag, Probe A, time-resolved fluorescence); format: biochemical; conditions: PARP7 12 nM, Probe A 2 nM, 1 hr room temperature
T1 construct: purchased BPS 80527
T1 sequence (Q7Z3E1 1-657): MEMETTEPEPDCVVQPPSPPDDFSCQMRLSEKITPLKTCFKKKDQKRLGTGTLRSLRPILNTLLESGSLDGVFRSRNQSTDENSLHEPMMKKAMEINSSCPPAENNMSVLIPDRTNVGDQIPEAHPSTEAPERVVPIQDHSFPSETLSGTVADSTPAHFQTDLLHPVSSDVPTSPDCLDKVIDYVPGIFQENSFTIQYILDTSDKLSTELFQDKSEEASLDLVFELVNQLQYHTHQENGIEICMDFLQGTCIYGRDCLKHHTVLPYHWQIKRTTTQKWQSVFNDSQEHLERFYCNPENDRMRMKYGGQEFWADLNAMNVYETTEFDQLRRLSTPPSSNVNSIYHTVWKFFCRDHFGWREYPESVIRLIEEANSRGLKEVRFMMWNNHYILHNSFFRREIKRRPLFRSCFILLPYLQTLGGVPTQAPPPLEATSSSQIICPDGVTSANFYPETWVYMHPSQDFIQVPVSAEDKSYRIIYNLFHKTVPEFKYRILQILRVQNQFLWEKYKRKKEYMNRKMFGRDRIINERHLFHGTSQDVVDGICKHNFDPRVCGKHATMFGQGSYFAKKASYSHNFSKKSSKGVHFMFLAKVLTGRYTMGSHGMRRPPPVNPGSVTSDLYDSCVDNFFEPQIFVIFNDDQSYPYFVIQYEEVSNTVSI

NCI-H1373 cells = assay: Cell proliferation inhibition assay (CTG method); format: cell-based, human; conditions: read-out: IC50 (nM) for NCI-H1373 cell viability
[1] = Homo sapiens, NCI-H1373, 144 h, NCI-H1373 cells, 6 days incubation, CTG method

C[C@@H](COCCC(=O)N1CCN2c3ncc(C(F)(F)F)cc3NC(C)(C)[C@H]2C1)Nc1cn[nH]c(=O)c1C(F)(F)F [Compound 76]
pIC50 (PARP7): > 8.00

C[C@@H](COC[C@H](F)C(=O)N1CCN2c3ncc(C(F)(F)F)cc3N(C)C(=O)[C@@H]2C1)Nc1cn[nH]c(=O)c1C(F)(F)F [Compound 66, (S)-8-((S)-2-fluoro-3-((S)-2-((6-oxo-5-(trifluoromethyl)-1,6-dihydropyridazin-4-yl)amino)propoxy)propionyl)-5-methyl-3-(trifluoromethyl)-7,8,9, 10-tetrahydro-5H-pyrazino[1,2-a]pyrido[3,2-e]pyrazin-6(6aH)-one]
IC50 (NCI-H1373 cells; [1]): 500 to 5000 nM | pIC50 (PARP7): > 8.00

C[C@@H](COCCC(=O)N1CCN2c3ncc(C#N)cc3N(C)C(=O)[C@@H]2C1)Nc1cn[nH]c(=O)c1C(F)(F)F [Compound 53]
IC50 (NCI-H1373 cells; [1]): 100 to 500 nM | pIC50 (PARP7): > 8.00

C[C@@H](COCCC(=O)N1CCN2c3ccc(C(F)(F)F)cc3N(C)C(=O)[C@@H]2C1)Nc1cn[nH]c(=O)c1C(F)(F)F [Compound 49]
IC50 (NCI-H1373 cells; [1]): > 5000 nM

C[C@@H](COCCC(=O)N1CCN2c3ncc(C(F)(F)F)cc3C(F)(F)C[C@@H]2C1)Nc1cn[nH]c(=O)c1C(F)(F)F (single isomer, unassigned) [Compound 64]
IC50 (NCI-H1373 cells; [1]): 500 to 5000 nM | pIC50 (PARP7): > 8.00

C[C@@H](COCCC(=O)N1CCN2c3ncc(C(F)(F)F)cc3CNC[C@H]2C1)Nc1cn[nH]c(=O)c1C(F)(F)F [Compound 10]
IC50 (NCI-H1373 cells; [1]): 100 to 500 nM | pIC50 (PARP7): > 8.00

C[C@@H](COCCC(=O)N1CCN2c3ncc(C(F)(F)F)cc3OCC[C@H]2C1)Nc1cn[nH]c(=O)c1C(F)(F)F [Compound 29, 5-(((S)-1-(3-oxo-3-((S)-3-(trifluoromethyl)-6,7,7a, 8,10,11-hexahydro-9H-pyrazino[1,2-d]pyrido[3,2-b][1,4]oxazepan-9-yl)propoxy)prop-2-yl)amino)-4-(trifluoromethyl)pyridazin-3(2H)-one]
IC50 (NCI-H1373 cells; [1]): < 100 nM | pIC50 (PARP7): > 8.00

C[C@@H](COCCC(=O)N1CCN2c3ncc(C(F)(F)F)cc3C(=O)OC[C@H]2C1)Nc1cn[nH]c(=O)c1C(F)(F)F [Compound 3, (R)-9-(3-((S)-2-((6-oxo-5-(trifluoromethyl)-1,6-dihydropyridazin-4-yl)amino)propoxy)propionyl)-3-(trifluoromethyl)-7,7a, 8,9,10,11-hexahydro-5H-pyrazino[2,1-c]pyrido[2,3-e][1,4]oxazin-5-one]
IC50 (NCI-H1373 cells; [1]): > 5000 nM | pIC50 (PARP7): > 8.00

C[C@@H](COCCC(=O)N1CCN2c3ncc(C(F)(F)F)cc3COC[C@H]2C1)Oc1cn[nH]c(=O)c1C(F)(F)F [Compound 69, 5-(((S)-1-(3-oxo-3-((R)-3-(trifluoromethyl)-7a, 8, 10, 11-tetrahydro-5H-pyrazino[2,1-c]pyrido[2,3-e][1, 4]oxazepane-9(7H)-yl)propoxy)prop-2-yl)oxy)-4-(trifluoromethyl)pyridazin-3(2H)-one]
IC50 (NCI-H1373 cells; [1]): < 100 nM

Cc1c(C(F)(F)F)cnc2c1OC[C@H]1CN(C(=O)CCOC[C@H](C)Nc3cn[nH]c(=O)c3C(F)(F)F)CCN21 [Compound 52, 5-(((S)-1-(3-((R)-4-methyl-3-(trifluoromethyl)-6a, 7,9, 10-tetrahydropyrazino[1,2-d]pyrido[3,2-b][1, 4]oxazinane-8(6H)-yl)-3-oxopropoxy)prop-2-yl)amino)-4-(trifluoromethyl)pyridazin-3(2H)-one]
IC50 (NCI-H1373 cells; [1]): < 100 nM | pIC50 (PARP7): > 8.00

C[C@@H](COC[C@@H](F)C(=O)N1CCN2c3ncc(C(F)(F)F)cc3N(C)C(=O)[C@@H]2C1)Nc1cn[nH]c(=O)c1C(F)(F)F [Compound 65, (S)-8-((R)-2-fluoro-3-((S)-2-((6-oxo-5-(trifluoromethyl)-1,6-dihydropyridazin-4-yl)amino)propoxy)propionyl)-5-methyl-3-(trifluoromethyl)-7,8,9, 10-tetrahydro-5H-pyrazino[1,2-a]pyrido[3,2-e]pyrazin-6(6aH)-one]
IC50 (NCI-H1373 cells; [1]): < 100 nM | pIC50 (PARP7): > 8.00

C[C@@H](COCCC(=O)N1CCN2c3ncc(C(F)(F)F)cc3OC[C@@H]2C1)Nc1cn[nH]c(=O)c1C(F)(F)F [Compound 2, 5-(((S)-1-(3-oxo-3-((S)-3-(trifluoromethyl)-6a, 7,9,10-tetrahydropyrazino[1,2-d]pyrido[3,2-b][1,4]oxazin-8(6H)-yl)propoxy)prop-2-yl)amino)-4-(trifluoromethyl)pyridazin-3(2H)-one]
IC50 (NCI-H1373 cells; [1]): < 100 nM | pIC50 (PARP7): > 8.00

C[C@@H](COCCC(=O)N1CCN2c3ncc(C(F)(F)F)cc3C(=O)CC2C1)Nc1cn[nH]c(=O)c1C(F)(F)F (stereo partly drawn) [Compound 37, 8-(3-((S)-2-((6-oxo-5-(trifluoromethyl)-1,6-dihydropyridazin-4-yl)amino)propoxy)propionyl)-3-(trifluoromethyl)-6,6a, 7,8,9,10-hexahydro-5H-pyrazino[1,2-a][1,8]naphthyridin-5-one]
IC50 (NCI-H1373 cells; [1]): 100 to 500 nM | pIC50 (PARP7): > 8.00

CC(COCC(O)C(=O)N1CCN2c3ncc(C(F)(F)F)cc3CCC2C1)Nc1cn[nH]c(=O)c1C(F)(F)F (stereo not drawn) [Compound 67]
IC50 (NCI-H1373 cells; [1]): < 100 nM

C[C@@H](COCCC(=O)N1CCN2c3ncc(C(F)(F)F)cc3NC(=O)[C@@H]2C1)Nc1cn[nH]c(=O)c1C(F)(F)F [Compound 8, (S)-8-(3-((S)-2-((6-oxo-5-(trifluoromethyl)-1,6-dihydropyridazin-4-yl)amino)propoxy)propionyl)-3-(trifluoromethyl)-7,8,9,10-tetrahydro-5H-pyrazino[1,2-a]pyrido[3,2-e]pyrazin-6(6aH)-one]
IC50 (NCI-H1373 cells; Homo sapiens, NCI-H1373, 144 h): 100 to 500 nM

CC(COCC(O)C(=O)N1CCN2c3ncc(C(F)(F)F)cc3CCC2C1)Nc1cn[nH]c(=O)c1C(F)(F)F (stereo not drawn) [Compound 68]
IC50 (NCI-H1373 cells; NCI-H1373 cells, 6 days incubation, CTG method): < 100 nM

C[C@@H](COCCC(=O)N1CCN2c3ncc(C(F)(F)F)cc3N(C)C(=O)[C@@H]2C1)Nc1cn[nH]c(=O)c1C(F)(F)F [Compound 33, (S)-5-methyl-8-(3-((S)-2-((6-oxo-5-(trifluoromethyl)-1,6-dihydropyridazin-4-yl)amino)propoxy)propionyl)-3-(trifluoromethyl)-7,8,9,10-tetrahydro-5H-pyrazino[1,2-a]pyrido[3,2-e]pyrazin-6(6aH)-one]
IC50 (NCI-H1373 cells; Homo sapiens, NCI-H1373, 144 h): < 100 nM

CC(COCCC(=O)N1CCN2c3ncc(C(F)(F)F)cc3CN(C)C(=O)C2C1)Nc1cn[nH]c(=O)c1C(F)(F)F [Compound 57, (R)-6-methyl-9-(3-((S)-2-((6-oxo-5-(trifluoromethyl)-1,6-dihydropyridazin-4-yl)amino)propoxy)propionyl)-3-(trifluoromethyl)-5,6,8,9, 10, 11-hexahydropyrazino[1,2-a]pyrido[3,2-f][1, 4]diazepan-7(7aH)-one]
IC50 (NCI-H1373 cells; [1]): 500 to 5000 nM

C[C@@H]1CN2c3ncc(C(F)(F)F)cc3OC[C@H]2CN1C(=O)CCOC[C@H](C)Nc1cn[nH]c(=O)c1C(F)(F)F [Compound 24, 5-(((S)-1-(3-((6aR,9R)-9-methyl-3-(trifluoromethyl)-6a, 7,9,10-tetrahydropyrazino[1,2-d]pyrido[3,2-b][1,4]oxazin-8(6H)-yl)-3-oxypropoxy)prop-2-yl)amino)-4-(trifluoromethyl)pyridazin-3(2H)-one]
IC50 (NCI-H1373 cells; [1]): 100 to 500 nM

C[C@@H](COCCC(=O)N1CCN2c3ncc(C(F)(F)F)c(C(F)F)c3OCC[C@H]2C1)Nc1cn[nH]c(=O)c1C(F)(F)F [Compound 62, 5-(((S)-1-(3-((S)-4-(difluoromethyl)-3-(trifluoromethyl)-6,7,7a, 8, 10, 11-hexahydro-9H-pyrazino[1,2-d]pyrido[3,2-b][1, 4]oxazepane-9-yl)-3-oxypropoxy)prop-2-yl)amino)-4-(trifluoromethyl)pyridazin-3(2H)-one]
IC50 (NCI-H1373 cells; [1]): 100 to 500 nM

C[C@@H](COCCC(=O)N1CCN2c3ncc(C(F)(F)F)cc3NC(=O)[C@H]2C1)Nc1cn[nH]c(=O)c1C(F)(F)F [Compound 7, (R)-8-(3-((S)-2-((6-oxo-5-(trifluoromethyl)-1,6-dihydropyridazin-4-yl)amino)propoxy)propionyl)-3-(trifluoromethyl)-7,8,9,10-tetrahydro-5H-pyrazino[1,2-a]pyrido[3,2-e]pyrazin-6(6aH)-one]
IC50 (NCI-H1373 cells; Homo sapiens, NCI-H1373, 144 h): 500 to 5000 nM

C[C@@H](COCCC(=O)N1CCN2c3ncc(C(F)(F)F)cc3N(C)C(=O)[C@H]2C1)Nc1cn[nH]c(=O)c1C(F)(F)F [Compound 54, (R)-5-methyl-8-(3-((S)-2-((6-oxo-5-(trifluoromethyl)-1,6-dihydropyridazin-4-yl)amino)propoxy)propionyl)-3-(trifluoromethyl)-7,8,9, 10-tetrahydro-5H-pyrazino[1,2-a]pyrido[3,2-e]pyrazin-6(6aH)-one]
IC50 (NCI-H1373 cells; Homo sapiens, NCI-H1373, 144 h): < 100 nM

[2H]C([2H])([2H])N1C(=O)[C@@H]2CN(C(=O)CCOC[C@H](C)Nc3cn[nH]c(=O)c3C(F)(F)F)CCN2c2ncc(C(F)(F)F)cc21 [Compound 39, (s)-5-(methyl-D3)-8-(3-((S)-2-((6-oxo-5-(trifluoromethyl)-1,6-dihydropyridazin-4-yl)amino)propoxy)propionyl)-3-(trifluoromethyl)-7,8,9,10-tetrahydro-5H-pyrazino[1,2-a]pyrido[3,2-e]pyrazino-6(6aH)-one]
IC50 (NCI-H1373 cells; Homo sapiens, NCI-H1373, 144 h): < 100 nM
